According to patent US20120021973A1, “Peptides for Treatment of Obesity” (priority 2008, published 2012):
*1 amine or outer side, *2 acyl side, *3 side chain or, on linkers, in order; H or OH if unused. Where a SMILES comes first, the peptide text is derived from it. Bridges are numbered along the chain shown (N, C = ends). [ ]: non-standard residue; d: D form. The star is where a group is joined. Palmitoyl(16-(5-tetrazolyl)) = O=C(CCCCCCCCCCCCCCCc1nnn[nH]1)*; Lys(CH2CO2H)2 = N[C@@H](CCCCN(CC(=O)O)CC(=O)O)C(=O)O; X1 = O=C(O)CN(CC(=O)O)C[C@H](N[*:1])C(=O)[*:2]; C20 diacid = O=C(O)CCCCCCCCCCCCCCCCCCC(=O)*; Hyp = O=C(O)[C@@H]1C[C@@H](O)CN1; NTA = O=C(O)CN(CC(=O)O)CC(=O)*; Nle = CCCC[C@H](N)C(=O)O; Dap = NC[C@H](N)C(=O)O; AEEA = NCCOCCOCC(=O)O; βAla = NCCC(=O)O

Test system: ad libitum fed rat
Assay: Assay (I) efficacy testing on appetite, ad libitum fed rat model
Assay type: in vivo
Method: Assay (I)— Experimental Protocol for Efficacy Testing on Appetite with MC4 Analogues, Using an Ad Libitum Fed Rat Model.
TAC:SPRD @mol rats or Wistar rats from M&B Breeding and Research Centre A/S, Denmark are used for the experiments. The rats have a body weight 200-250 g at the start of experiment. The rats arrive at least 10-14 days before start of experiment with a body weight of 180-200 g. Each dose of compound is tested in a group of 8 rats. A vehicle group of 8 rats is included in each set of testing.
When the animals arrive they are housed individually in a reversed light/dark phase (lights off 7:30 am, lights on 7:30 pm), meaning that lights are off during daytime and on during nighttime. Since rats normally initiate food intake when light is removed, and eat the major part of their daily food intake during the night, this set up results in an alteration of the initiation time for food intake to 7:30 am, when lights are switched off. During the acclimatization period of 10-14 days, the rats have free access to food and water. During this period the animals are handled at least 3 times. The experiment is conducted in the rats' home cages. Immediately before dosing the rats are randomised to the various treatment groups (n 8) by body weight. They are dosed according to body weight at between 7:00 am and 7:45 am, with a 1-3 mg/kg solution administered intraperitoneally (ip), orally (po) or subcutaneously (sc). The time of dosing is recorded for each group. After dosing, the rats are returned to their home cages, where they then have access to food and water. The food consumption is recorded individually every hour for 7 hours, and then after 24 h and sometimes 48 h. At the end of the experimental session, the animals are euthanised.
The individual data are recorded in Microsoft excel sheets. Outliers are excluded after applying the Grubbs statistical evaluation test for outliers, and the result is presented graphically using the GraphPad Prism program.

SMILES	Food consumption (% of vehicle) 24 h (3 mg/kg)	Food consumption (% of vehicle) 48 h (3 mg/kg)	Food consumption (% of vehicle) 24 h (1 mg/kg)	Food consumption (% of vehicle) 48 h (1 mg/kg)
CCCC[C@H](NC(=O)[C@H](CNC(=O)CN(CC(=O)O)CC(=O)O)NC(=O)[C@H](CO)NC(=O)[C@H](CCC(N)=O)NC(=O)[C@H](CO)NC(=O)CNC(=O)COCCOCCNC(=O)CCCCCCCCCCCCCCCc1nnn[nH]1)C(=O)N[C@H]1CCC(=O)NCCCC[C@@H](C(N)=O)NC(=O)[C@H](Cc2c[nH]c3ccccc23)NC(=O)[C@H](CCCNC(=N)N)NC(=O)[C@@H](Cc2ccccc2)NC(=O)[C@@H]2C[C@@H](O)CN2C1=O [Example 4, (2-{2-[16-(Tetrazol-5-yl)hexadecanoylamino]ethoxy}ethoxy)acetyl-Gly-Ser-Gln-Ser-Dap(BCMA)-Nle-c[Glu-Hyp-D-Phe-Arg-Trp-Lys]-NH2] ({Palmitoyl(16-(5-tetrazolyl))-AEEA}-GSQS[Dap](NTA)[Nle]E[Hyp][dF]RWK-NH2; lactam 7-12)	52 % of vehicle	69 % of vehicle		
CCCC[C@H](NC(=O)[C@H](CN(CC(=O)O)CC(=O)O)NC(=O)[C@H](Cc1c[nH]cn1)NC(=O)[C@H](CCC(N)=O)NC(=O)[C@H](CO)NC(=O)CNC(=O)COCCOCCNC(=O)CCCCCCCCCCCCCCCc1nnn[nH]1)C(=O)N[C@H]1CCC(=O)NCCCC[C@@H](C(N)=O)NC(=O)[C@H](Cc2c[nH]c3ccccc23)NC(=O)[C@H](CCCNC(=N)N)NC(=O)[C@@H](Cc2ccccc2)NC(=O)[C@@H]2C[C@@H](O)CN2C1=O [Example 6, (2-{2-[16-(Tetrazol-5-yl)hexadecanoylamino]ethoxy}ethoxy)acetyl-Gly-Ser-Gln-His-Dap(biscarboxymethyl)-Nle-c[Glu-Hyp-D-Phe-Arg-Trp-Lys]-NH2] ({Palmitoyl(16-(5-tetrazolyl))-AEEA}-GSQH[X1][Nle]E[Hyp][dF]RWK-NH2; lactam 7-12)	58 % of vehicle	69 % of vehicle		
CCCC[C@H](NC(=O)[C@H](CNC(=O)CN(CC(=O)O)CC(=O)O)NC(=O)[C@H](Cc1c[nH]cn1)NC(=O)[C@H](CCC(N)=O)NC(=O)[C@H](CO)NC(=O)CNC(=O)COCCOCCNC(=O)CCCCCCCCCCCCCCCc1nnn[nH]1)C(=O)N[C@H]1CCC(=O)NCCCC[C@@H](C(N)=O)NC(=O)[C@H](Cc2c[nH]c3ccccc23)NC(=O)[C@H](CCCNC(=N)N)NC(=O)[C@@H](Cc2ccccc2)NC(=O)[C@@H]2C[C@@H](O)CN2C1=O [Example 9, (2-{2-[16-(Tetrazol-5-yl)hexadecanoylamino]ethoxy}ethoxy)acetyl-Gly-Ser-Gln-His-Dap(BCMA)-Nle-c[Glu-Hyp-D-Phe-Arg-Trp-Lys]-NH2] ({Palmitoyl(16-(5-tetrazolyl))-AEEA}-GSQH[Dap](NTA)[Nle]E[Hyp][dF]RWK-NH2; lactam 7-12)	47 % of vehicle	57 % of vehicle		
CCCC[C@H](NC(=O)[C@H](CCCCNC(=O)CN(CC(=O)O)CC(=O)O)NC(=O)[C@H](CO)NC(=O)[C@H](CCC(N)=O)NC(=O)[C@H](CO)NC(=O)CNC(=O)COCCOCCNC(=O)CCCCCCCCCCCCCCCc1nnn[nH]1)C(=O)N[C@H]1CCC(=O)NCCCC[C@@H](C(N)=O)NC(=O)[C@H](Cc2c[nH]c3ccccc23)NC(=O)[C@H](CCCNC(=N)N)NC(=O)[C@@H](Cc2ccccc2)NC(=O)[C@@H]2C[C@@H](O)CN2C1=O [Example 15, (2-{2-[16-(Tetrazol-5-yl)hexadecanoylamino]ethoxy}ethoxy)acetyl-Gly-Ser-Gln-Ser-Lys(BCMA)-Nle-c[Glu-Hyp-D-Phe-Arg-Trp-Lys]-NH2] ({Palmitoyl(16-(5-tetrazolyl))-AEEA}-GSQSK(NTA)[Nle]E[Hyp][dF]RWK-NH2; lactam 7-12)			74 % of vehicle	85 % of vehicle
CCCC[C@H](NC(=O)CCNC(=O)[C@H](CCCCN(CC(=O)O)CC(=O)O)NC(=O)[C@H](Cc1c[nH]cn1)NC(=O)[C@H](CCC(N)=O)NC(=O)[C@H](CO)NC(=O)[C@H](CO)NC(=O)[C@H](CCC(N)=O)NC(=O)[C@@H](CO)NC(=O)CNC(=O)COCCOCCNC(=O)COCCOCCNC(=O)CCCCCCCCCCCCCCCCCCC(=O)O)C(=O)N[C@H]1CCC(=O)NCCCC[C@@H](C(N)=O)NC(=O)[C@H](Cc2c[nH]c3ccccc23)NC(=O)[C@H](CCCNC(=N)N)NC(=O)[C@@H](Cc2ccccc2)NC(=O)[C@@H]2C[C@@H](O)CN2C1=O [Example 22, {2-[2-(2-{2-[2-(19-Carboxynonadecanoylamino)ethoxy]ethoxy}acetylamino)ethoxy]ethoxy}acetyl-Gly-D-Ser-Gln-Ser-Ser-Gln-His-Lys(biscarboxymethyl)-β-Ala-Nle-c[Glu-Hyp-D-Phe-Arg-Trp-Lys]-NH2] ({C20 diacid-AEEA-AEEA}-G[dS]QSSQH[Lys(CH2CO2H)2][βAla][Nle]E[Hyp][dF]RWK-NH2; lactam 11-16)			59 % of vehicle	76 % of vehicle
